Drawing on US10336739B2, “4-hydroxy-3-(heteroaryl)pyridine-2-one APJ agonists” (BRISTOL-MYERS SQUIBB COMPANY, priority 2015, dated 2019), this text covers EC50 for 29 compounds.

By EC50 is commonly meant the concentration that produces a half-maximal response.

In the first assay the target is human APJ receptor (Homo sapiens (Human), UniProt P35414). The assay can be described thus: Intracellular cAMP accumulation assay (APJ hcAMP, HTRF). Particulars: HEK293 cells stably expressing human APJ receptor; inhibition of forskolin-mediated cAMP production; read-out: Human APJ cAMP EC50 Potency range. The format is cell-based. In outline: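 HEK293 cells stably expressing human APJ, 5,000 per well, exposed to compound with […] IBMX and 2 μM forskolin for 30 minutes at room temperature. cAMP measured by HTRF after lysis and 60 min detection incubation. EC50 from sigmoidal variable-slope fits of inhibition of forskolin-induced cAMP, quantified against a cAMP standard curve.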
human APJ receptor, sequence (P35414 whole entry): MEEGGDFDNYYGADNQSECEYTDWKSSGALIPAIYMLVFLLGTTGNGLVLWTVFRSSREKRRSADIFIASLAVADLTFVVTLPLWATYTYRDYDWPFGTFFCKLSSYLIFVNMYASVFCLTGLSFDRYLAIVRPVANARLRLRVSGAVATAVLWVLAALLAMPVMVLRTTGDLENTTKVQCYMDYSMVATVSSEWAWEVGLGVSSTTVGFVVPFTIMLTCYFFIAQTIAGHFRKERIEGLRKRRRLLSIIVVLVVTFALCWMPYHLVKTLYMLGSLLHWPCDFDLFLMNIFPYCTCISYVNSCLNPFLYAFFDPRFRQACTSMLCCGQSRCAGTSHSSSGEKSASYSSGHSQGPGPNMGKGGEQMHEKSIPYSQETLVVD
For orientation: Changes in cAMP serve as a functional read-out for many G protein-coupled receptors.
For the compound `CCOCc1nc(O)c(-c2nnc(Cc3ccc(Cl)cc3)o2)c(O)c1-c1c(O)cccc1OC` (single isomer, unassigned) [Example 222, 3-{5-[(4-chlorophenyl)methyl]-1,3,4-oxadiazol-2-yl}-6-(ethoxymethyl)-5-(2-hydroxy-6-methoxyphenyl)pyridine-2,4-diol], the EC50 was in the range of 0.01 to 10 nM.

For `CCOCc1nc(O)c(-c2nnc(Cn3ccccc3=O)o2)c(O)c1-c1c(OC)cc(F)cc1OC` [Example 212, 1-({5-[6-(ethoxymethyl)-5-(4-fluoro-2,6-dimethoxyphenyl)-2,4-dihydroxypyridin-3-yl]-1,3,4-oxadiazol-2-yl}methyl)-1,2-dihydropyridin-2-one], the EC50 is 10 to 100 nM.

For the compound `CCNCc1[nH]c(=O)c(-c2nnc(Cc3ccc(Cl)cn3)o2)c(O)c1-c1c(OC)cccc1OC` [Example 230, 3-{5-[(5-chloropyridin-2-yl)methyl]-1,3,4-oxadiazol-2-yl}-5-(2,6-dimethoxyphenyl)-6-[(ethylamino)methyl]pyridine-2,4-diol], the EC50 lay within 0.01 to 10 nM.

As to `CCOCc1nc(O)c(-c2nnc(Cc3ccc(Cl)cc3)o2)c(O)c1-c1c(OC)cncc1OC` [Example 217, 3-{5-[(4-chlorophenyl)methyl]-1,3,4-oxadiazol-2-yl}-5-(3,5-dimethoxypyridin-4-yl)-6-(ethoxymethyl)pyridine-2,4-diol], the EC50 fell in the range of 10 to 100 nM.

As to `CCCCc1nc(O)c(-c2nnc(Cc3ccc(Cl)cc3)o2)c(O)c1-c1c(OC)ccc(F)c1OC` (single isomer, unassigned) [Example 218, 6-butyl-3-{5-[(4-chlorophenyl)methyl]-1,3,4-oxadiazol-2-yl}-5-(3-fluoro-2,6-dimethoxyphenyl)pyridine-2,4-diol], the concentration giving a half-maximal response (EC50) lay within 10 to 100 nM.

Staying with this assay, now noted: HEK293 cells stably expressing human APJ receptor; inhibition of forskolin-mediated cAMP production; read-out: hAPJ cAMP EC50 (nM) Potency range.
With `CCOCc1nc(O)c(-c2nnc(Cc3ccc(Cl)cn3)o2)c(O)c1-c1c(O)cccc1OC` [Example 274, 3-{5-[(5-chloropyridin-2-yl)methyl]-1,3,4-oxadiazol-2-yl}-6-(ethoxymethyl)-5-(2-hydroxy-6-methoxyphenyl) pyridine-2,4-diol], the EC50 fell in the range of 0.01 to 10 nM.

On to `CCOCc1nc(O)c(-c2nnc(CNC(=O)c3ccccc3)o2)c(O)c1-c1ccccc1OC` [Example 251, N-({5-[6-(ethoxymethyl)-2,4-dihydroxy-5-(2-methoxyphenyl)-pyridin-3-yl]-1,3,4-oxadiazol-2-yl}methyl) benzamide], for which the EC50 was 0.01 to 10 nM.

Regarding `CCCCc1nc(O)c(-c2nnc(CC(=O)NCc3ccc(N(C)C)cc3)o2)c(O)c1-c1c(OC)cccc1OC` [Example 270, 2-{5-[6-butyl-5-(2,6-dimethoxyphenyl)-2,4-dihydroxy-pyridin-3-yl]-1,3,4-oxadiazol-2-yl}-N-{[4-(dimethylamino)phenyl]methyl} acetamide], the EC50 lay in the range of 0.01 to 10 nM.

In the case of `CCCCc1nc(O)c(-c2nnc(CC(=O)NCCc3ccccc3Cl)o2)c(O)c1-c1c(OC)cccc1OC` [Example 258, 2-{5-[6-butyl-5-(2,6-dimethoxyphenyl)-2,4-dihydroxy-pyridin-3-yl]-1,3,4-oxadiazol-2-yl}-N-[2-(2-chlorophenyl)ethyl]acetamide], the half-maximal effective concentration (EC50) lay in the range of 0.01 to 10 nM.

For the compound `CCCCc1nc(O)c(-c2nnc(CC(=O)NCc3ccncc3)o2)c(O)c1-c1c(OC)cccc1OC` [Example 268, 2-{5-[6-butyl-5-(2,6-dimethoxyphenyl)-2,4-dihydroxy-pyridin-3-yl]-1,3,4-oxadiazol-2-yl}-N-[(pyridin-4-yl)methyl] acetamide], the EC50 is 0.01 to 10 nM.

As to `CCCCc1nc(O)c(-c2nnc(CC(=O)NCc3nnc(C)o3)o2)c(O)c1-c1c(OC)cccc1OC` [Example 271, 2-{5-[6-butyl-5-(2,6-dimethoxyphenyl)-2,4-dihydroxypyridin-3-yl]-1,3,4-oxadiazol-2-yl}-N-[(5-methyl-1,3,4-oxadiazol-2-yl)methyl]acetamide], the EC50 was in the range of 0.01 to 10 nM.

For `CCCCc1nc(O)c(-c2nnc(CC(=O)NCc3cc(C(C)C)no3)o2)c(O)c1-c1c(OC)cccc1OC` [Example 272, 2-{5-[6-butyl-5-(2,6-dimethoxyphenyl)-2,4-dihydroxy-pyridin-3-yl]-1,3,4-oxadiazol-2-yl}-N-{[3-(propan-2-yl)-1,2-oxazol-5-yl]methyl} acetamide], the EC50 fell in the range of 0.01 to 10 nM.

As for `CCCCc1nc(O)c(-c2nnc(CC(=O)NCc3ncco3)o2)c(O)c1-c1c(OC)cccc1OC` [Example 256, 2-{5-[6-butyl-5-(2,6-dimethoxyphenyl)-2,4-dihydroxypyridin-3-yl]-1,3,4-oxadiazol-2-yl}-N-[(1,3-oxazol-2-yl)methyl] acetamide], the EC50 is 0.01 to 10 nM.

Consider `CCCCc1nc(O)c(-c2nnc(CC(=O)NCc3ccc(OC)cc3)o2)c(O)c1-c1c(OC)cccc1OC` [Example 269, 2-{5-[6-butyl-5-(2,6-dimethoxyphenyl)-2,4-dihydroxy-pyridin-3-yl]-1,3,4-oxadiazol-2-yl}-N-[(4-methoxyphenyl)methyl]acetamide], for which the EC50 is 0.01 to 10 nM.

Staying with this assay, now noted: HEK293 cells stably expressing human APJ receptor; inhibition of forskolin-mediated cAMP production; read-out: hAPJ cAMP EC50 Potency range.
`CCCCc1nc(O)c(-c2nnc(CC3CCCCC3)o2)c(O)c1-c1c(OC)cccc1OC` [Example 67, 6-butyl-3-[5-(cyclohexylmethyl)-1,3,4-oxadiazol-2-yl]-5-(2,6-dimethoxyphenyl) pyridine-2,4-diol]: the EC50 fell in the range of 0.01 to 10 nM.

In the case of `CCCCc1nc(O)c(-c2nnc(Cc3cncnc3)o2)c(O)c1-c1c(OC)cccc1OC` [Example 22, 6-butyl-5-(2,6-dimethoxyphenyl)-3-[5-(pyrimidin-5-ylmethyl)-1,3,4-oxadiazol-2-yl]pyridine-2,4-diol], the EC50 fell in the range of 10 to 100 nM.

Regarding `CCCCc1nc(O)c(-c2nnc(Cc3nc(-c4ccccn4)no3)o2)c(O)c1-c1c(OC)cccc1OC` [Example 55, 6-butyl-5-(2,6-dimethoxyphenyl)-3-(5-{[3-(pyridin-2-yl)-1,2,4-oxadiazol-5-yl]methyl}-1,3,4-oxadiazol-2-yl)pyridine-2,4-diol], the EC50 was 0.01 to 10 nM.

In the case of `CCCCc1nc(O)c(-c2nnc(CCc3ccc(C(F)(F)F)cc3)o2)c(O)c1-c1c(OC)cccc1OC` [Example 75, 6-butyl-5-(2,6-dimethoxyphenyl)-3-(5-{2-[4-(trifluoromethyl)phenyl]ethyl}-1,3,4-oxadiazol-2-yl)pyridine-2,4-diol], the EC50 lay in the range of 10 to 100 nM.

On to `CCCCc1nc(O)c(-c2nnc(Cc3noc4ccccc34)o2)c(O)c1-c1c(Cl)cccc1Cl` [Example 86, 3-[5-(1,2-benzoxazol-3-ylmethyl)-1,3,4-oxadiazol-2-yl]-6-butyl-5-(2,6-dichlorophenyl) pyridine-2,4-diol], for which the EC50 lay within 0.01 to 10 nM.

Turning to `CCCCc1nc(O)c(-c2nnc(CN(C)C(=O)c3cccnc3)o2)c(O)c1-c1c(OC)cccc1OC` [Example 165, N-({5-[6-butyl-5-(2,6-dimethoxyphenyl)-2,4-dihydroxypyridin-3-yl]-1,3,4-oxadiazol-2-yl}methyl)-N-methylpyridine-3-carboxamide], the EC50 is 0.01 to 10 nM.

On to `CCCCc1nc(O)c(-c2nnc(CNC(=O)CC(C)C)o2)c(O)c1-c1c(OC)cccc1OC` [Example 174, N-({5-[6-butyl-5-(2,6-dimethoxyphenyl)-2,4-dihydroxypyridin-3-yl]-1,3,4-oxadiazol-2-yl}methyl)-3-methylbutanamide], for which the EC50 is 0.01 to 10 nM.

For `CCCCc1nc(O)c(-c2nnc(Cc3ccc(Cl)cc3F)o2)c(O)c1-c1c(OC)cccc1OC` [Example 103, 6-butyl-3-{5-[(4-chloro-2-fluorophenyl)methyl]-1,3,4-oxadiazol-2-yl}-5-(2,6-dimethoxyphenyl) pyridine-2,4-diol], the EC50 fell in the range of 0.01 to 10 nM.

Consider `CCCCc1nc(O)c(-c2nnc(CCc3nccs3)o2)c(O)c1-c1c(OC)cccc1OC` [Example 72, 6-butyl-5-(2,6-dimethoxyphenyl)-3-{5-[2-(1,3-thiazol-2-yl)ethyl]-1,3,4-oxadiazol-2-yl}pyridine-2,4-diol], for which the EC50 is 0.01 to 10 nM.

With `CCCCc1nc(O)c(-c2nnc(Cc3ccc(F)c(F)c3)o2)c(O)c1C1=CCCCC1` [Example 144, 6-butyl-5-(cyclohex-1-en-1-yl)-3-{5-[(3,4-difluorophenyl)methyl]-1,3,4-oxadiazol-2-yl}pyridine-2,4-diol], the EC50 is 10 to 100 nM.

As for `CCCCc1nc(O)c(-c2nnc(CCc3nc4ccccc4s3)o2)c(O)c1-c1c(OC)cccc1OC` [Example 82, 3-{5-[2-(1,3-benzothiazol-2-yl)ethyl]-1,3,4-oxadiazol-2-yl}-6-butyl-5-(2,6-dimethoxyphenyl) pyridine-2,4-diol], the half-maximal effective concentration (EC50) lay in the range of 0.01 to 10 nM.

With `CCCCc1nc(O)c(-c2nnc(CC(=O)N3CC(F)(F)C3)o2)c(O)c1-c1c(OC)cccc1OC` [Example 200, 2-{5-[6-butyl-5-(2,6-dimethoxyphenyl)-2,4-dihydroxypyridin-3-yl]-1,3,4-oxadiazol-2-yl}-1-(3,3-difluoroazetidin-1-yl)ethan-1-one], the EC50 fell in the range of 0.01 to 10 nM.

Take `CCCCc1nc(O)c(-c2nnc(CN(C)C(=O)C(C)(C)C)o2)c(O)c1-c1c(OC)cccc1OC` [Example 169, N-({5-[6-butyl-5-(2,6-dimethoxyphenyl)-2,4-dihydroxypyridin-3-yl]-1,3,4-oxadiazol-2-yl}methyl)-N,2,2-trimethyl-propanamide]: the EC50 lay within 0.01 to 10 nM.

Regarding `CCCCc1nc(O)c(-c2nnc(CC(=O)N3CCOCC3)o2)c(O)c1-c1c(OC)cccc1OC` [Example 196, 2-{5-[6-butyl-5-(2,6-dimethoxyphenyl)-2,4-dihydroxypyridin-3-yl]-1,3,4-oxadiazol-2-yl}-1-(morpholin-4-yl)ethan-1-one], the EC50 lay within 0.01 to 10 nM.

`CCCCc1nc(O)c(-c2nnc(CN(C)C(=O)c3ccccc3)o2)c(O)c1-c1c(OC)cccc1OC` [Example 172, N-({5-[6-butyl-5-(2,6-dimethoxyphenyl)-2,4-dihydroxypyridin-3-yl]-1,3,4-oxadiazol-2-yl}methyl)-N-methylbenzamide]: the EC50 lay in the range of 0.01 to 10 nM.
